Tested on: APOE-gene deficient mice (BALB/c.KOR/StmSlc-Apoe^shl)
Assay: Y maze test of spacial working memory
Assay type: in vivo
Settings: intake from age of 8 weeks, examined 250 days later (10-month old)
Description: The wild type mice used were BALB/cCrSlc and the APOE-gene deficient mice used were BALB/c.KOR/StmSlc-Apoe^shl.
The cognitive function was measured by the Y maze test (Conrad C D. et al., Brain Res. 1997; 759:76-83). Its principle is as follows. Animals placed in the center of 3 arms in the Y-shape start exploratory behavior after a while. Normal animals rarely return to the arm once explored and explore different arms in turn with the help of marks seen out of the maze. However, model animals with declined space recognition and/or memory go to the same place many times and enter the arm that the animal entered the last time again. In the Y maze test, the order of the arms that an animal entered during a certain period of time is measured and the percentage of the number of times (percent alternation) when the mouse entered all different arms in a consecutive raw of three times as an indicator of space recognition and memory.
Powder feed containing 0.1 g of MgH2 in 1 kg of MF powder feed (a product manufactured by Oriental Yeast Co., ltd.) was produced and the animals were allowed to take the feed freely. […] The control feed was feed containing 0.22 g of Mg(OH)2 per 1 kg of MF powder feed. The feed was changed with fresh feed five times a week.
The control mice were placed for 1 hour in a chamber containing the air five times a week.

SMILES | spacial working memory (percent alternation, Y maze, FIG. 4)
[H-].[H-].[Mg+2] [MgH2, magnesium hydride] | the decline of spacial working memory was decreased
[HH] [hydrogen gas] | the decline of spacial working memory was decreased

— patent US20200196637A1, “COMPOSITION FOR PREVENTION OR TREATMENT OF MILD COGNITIVE […] […] […] AS ACTIVE INGREDIENT” (priority 2016, published 2020)
